Data published in patent US20220281930A1, “COMPOSITIONS AND METHODS FOR THE TREATMENT OF PATHOLOGICAL PAIN AND ITCH” (DUKE UNIVERSITY, priority 2019, published 2022).

Tests used:
Format in all cases: cell-based
KCC2 mRNA [1] = test: Secondary screen: KCC2 RT-qPCR in primary mouse neurons; settings: Natural Compounds; rank score
Experimental: The primary screen encompassed three levels of LUC measurements. The first level of screening yielded a total of 137 compounds with cut-off RLU>125% LUC activity. These 137 compounds were subject to second round of screening, which was carried out in duplicate independent assays to yield the top 103 compounds sorted for highest RLU. The 103 compounds were then subjected to a third round of screening carried out in duplicate independent assays to yield the top 40 compounds which were again ranked. The best 22 of these 40 compounds (ranked for highest RLU activity) were subjected to secondary screening: Cultured neurons were treated with the 22 compounds; RT-qPCR and Clomeleon imaging methodologies (Yeo et al., 2009, J Neurosci 29:14652-14662) were used to determine effects of compounds on KCC2 mRNA expression and [Cl—]i, respectively. Each compound was ranked based on composite scores from primary and secondary screening.
(§1) Total RNA was isolated from cultured cell samples using Directzol RNA miniprep kit (ZymoResearch). The protocol includes DNAse digestion to exclude genomic DNA from preparations. Total RNA (1 μg) was reverse transcribed using oligo primers (dT) and SuperScriptIII first-strand synthesis kit (Invitrogen). Gene expression was assessed by quantitative real-time PCR using 2×SYBR Green Master Mix (Qiagen) and a three-step cycling protocol (anneal at 60° C./elongate at 72° C., denature at 95° C.). Specificity of primers was verified by dissociation/melting curve for the amplicons when using SYBR Green as a detector. All reactions were performed in triplicates. The amount of target messenger RNA (mRNA) in the experimental group relative to that in the control was determined from the resulting fluorescence and threshold values (Ct) using the ΔΔCt method. βIII-tubulin was used as housekeeping gene.
oligodT-initiated reverse transcription of 1 μg total RNA, DNA-se treated, was subjected to RT-qPCR using primers specific for KCC2 for rat and KCC2 for human sequences, normalized for neuronal βIII-tubulin, as previously described (Yeo et al., 2009, J Neurosci 29:14652-14662). For cultured neurons, total RNA was extracted from pelleted cells, and for spinal cord tissue it was extracted from microdissected lumbar spinal cord dorsal horn.
To identify KCC2 gene expression enhancing compounds, cultured primary cortical neurons were cultured from KCC2-luciferase(LUC)-knockin (KCC2-LUCki) mice (Liedtke et al., 2013, Small 9:1066-1075; Yeo et al., 2013, Proc Natl Acad Sci USA 110:4315-4320) and used LUC metrics as readout for activity of the proximal KCC2 promoter (2.5 kB (Yeo et al., 2009, J Neurosci 29:14652-14662)), which drives LUC in this mouse transgenic line. A Z′ factor of 0.94 was obtained. This strategy will not select for long-range enhancers of KCC2 gene expression that act outside the 2.5 kB core KCC2 promoter. 1057 compounds, contained in two NCI libraries (FIG. 1), related to inhibition of growth of malignantly transformed cells were screened. Iterative screening followed by measurements of KCC2 mRNA (RT-qPCR) and intracellular chloride ([Cl—]i), using clomeleon chloride indicator protein (Kuner and Augustine, 2000, Neuron 27:447-459; Yeo et al., 2009, J Neurosci 29:14652-14662), led to decreasing numbers of confirmed and re-confirmed hits, and 4 “winner” compounds were selected (FIG. 1 and Table 3).

KCC2 mRNA [2] = test: KCC2 mRNA RT-qPCR in rat primary cortical neurons; settings: primary rat cortical neurons; 0.1, 0.2, 0.5 μM KP
Experimental: as §1, with “gene. oligodT-initiated reverse transcription of 1 μg total RNA, DNA-se treated, was subjected to RT-qPCR using primers specific for KCC2 for rat and KCC2 for human sequences, normalized for neuronal βIII-tubulin, as previously described (Yeo et al., 2009, J Neurosci 29:14652-14662). For cultured neurons, total RNA was extracted from pelleted cells, and for spinal cord tissue it was extracted from microdissected lumbar spinal cord dorsal horn.” for “gene.”

synaptophysin = test: Immuno-cytochemistry morphometry of primary human cortical neurons, synaptophysin; settings: 400 nM KP
Experimental: The neuron-enriched cultures were established from fetal cortical specimens at 15-20 weeks of gestation. The protocols for tissue processing complied with all federal and institutional guidelines. The cultures were plated on PEI (polyethyleneimine solution) substrate and maintained in Neurobasal media supplemented with B27 as previously described (Pelsman et al., 2003, International journal of developmental neuroscience 21:117-124; Yeo et al., 2013, Proc Natl Acad Sci USA 110:4315-4320).
For immunostaining, the cultures were treated for 2-4 days with vehicle or 400 nM KP, fixed with 4% PFA at day 10, and processed for double-staining with anti-KCC2 and anti-synaptophysin or anti-NeuN (see Table 1).
The 0.34 micrometer confocal slices through entire cell layers at different optical fields (n=17-28 for each group) of the fixated cultures were acquired using a Zeiss LSM700 confocal microscope.
Image Z-stacks were analyzed using Imaris 9.2.1 software. Optical density intensity sum values for each stack/channel were divided by corresponding data volumes and the resulting values were normalized to the number of specifically labeled cells within each stack. There were no significant differences in the number of cells between vehicle and KP-treated groups.

O=C1Cc2c([nH]c3ccc(Br)cc23)-c2ccccc2N1 [kenpaullone, 9-bromo-7,12-dihydro-indolo [3,2-d] [1]benzazepin-6(5H)-one]
RT-QPCR Score (triplicates) (KCC2 mRNA [1]): 2 | KCC2 mRNA expression (KCC2 mRNA [2]): dose-dependent increase | increased synaptophysin expression relative to vehicle (synaptophysin): 54%
